Test system: APOE-gene deficient mice (BALB/c.KOR/StmSlc-Apoe^shl)
Assay: Y maze test of spacial working memory
Assay type: in vivo
Settings: intake from age of 8 weeks, examined 250 days later (10-month old)
Experimental: The wild type mice used were BALB/cCrSlc and the APOE-gene deficient mice used were BALB/c.KOR/StmSlc-Apoe^shl.
The cognitive function was measured by the Y maze test (Conrad C D. et al., Brain Res. 1997; 759:76-83). Its principle is as follows. Animals placed in the center of 3 arms in the Y-shape start exploratory behavior after a while. Normal animals rarely return to the arm once explored and explore different arms in turn with the help of marks seen out of the maze. However, model animals with declined space recognition and/or memory go to the same place many times and enter the arm that the animal entered the last time again. In the Y maze test, the order of the arms that an animal entered during a certain period of time is measured and the percentage of the number of times (percent alternation) when the mouse entered all different arms in a consecutive raw of three times as an indicator of space recognition and memory.
Powder feed containing 0.1 g of MgH2 in 1 kg of MF powder feed (a product manufactured by Oriental Yeast Co., ltd.) was produced and the animals were allowed to take the feed freely. […] The control feed was feed containing 0.22 g of Mg(OH)2 per 1 kg of MF powder feed. The feed was changed with fresh feed five times a week.
The control mice were placed for 1 hour in a chamber containing the air five times a week.

SMILES	spacial working memory (percent alternation, Y maze, FIG. 4)
[H-].[H-].[Mg+2] [MgH2, magnesium hydride]	the decline of spacial working memory was decreased
[HH] [hydrogen gas]	the decline of spacial working memory was decreased

Source: patent publication US20200196637A1, “COMPOSITION FOR PREVENTION OR TREATMENT OF MILD COGNITIVE […] […] […] AS ACTIVE INGREDIENT” (priority 2016, published 2020)
